Reference: patent publication US9265253B2, “Use of macrocyclic picolinamides as fungicides” (DOW AGROSCIENCES LLC, priority 2013, dated 2016)

Tests used:
Type in all cases: in vivo
[1] = test system: Magnaporthe grisea; Anamorph: Pyricularia oryzae; assay: whole plant or invertebrate; details: Pyricularia oryzae, topical, 24 h, read-out: Disease Control PYRIOR 1 DP
[2] = test system: Glomerella lagenarium; Anamorph: Colletotrichum lagenarium; assay: Cucumber Anthracnose (COLLLA) disease control; details: Colletotrichum orbiculare, topical, 24 h, 1 Day Protectant, read-out: Disease Control COLLLA 1 DP
Experimental: Technical grades of materials were dissolved in acetone, which were then mixed with nine volumes of water containing 110 ppm Triton X-100. The fungicide solutions were applied onto wheat seedlings using an automated booth sprayer to run-off. All sprayed plants were allowed to air dry prior to further handling. All fungicides were evaluated using the aforementioned method for their activity vs. all target diseases. Wheat leaf blotch and brown rust activity were also evaluated using track spray applications, in which case the fungicides were formulated as EC formulations, containing 0.1% Trycol 5941 in the spray solutions. Wheat plants (variety Yuma) were grown from seed in a greenhouse in 50% mineral soil/50% soil-less Metro mix until the first leaf was fully emerged, with 7-10 seedlings per pot. These plants were inoculated with an aqueous spore suspension of Septoria tritici either prior to or after fungicide treatments. After inoculation the plants were kept in 100% relative humidity (one day in a dark dew chamber followed by two to three days in a lighted dew chamber at 20° C.) to permit spores to germinate and infect the leaf. The plants were then transferred to a greenhouse set at 20° C. for disease to develop. When disease symptoms were fully expressed on the 1st leaves of untreated plants, infection levels were assessed on a scale of 0 to 100 percent disease severity. Percent disease control was calculated using the ratio of disease severity on treated plants relative to untreated plants. Cucumber seedlings (variety Bush Pickle) were propagated in soil-less Metro mix, with each pot having one plant, and used in the test when 12 to 14 days old. Test plants were inoculated with an aqueous spore suspension of Colletotrichum lagenarium 24 hr after fungicide treatments. After inoculation the plants were kept in a dew room at 22° C. with 100% relative humidity for 48 hr to permit spores to germinate and infect the leaf. The plants were then transferred to a growth room set at 22° C. for disease to develop. Fungicide formulation, application and disease assessment on the sprayed leaves followed the procedures as described in the Example A.

Rhyncosporium secalis = assay: Barley Scald (RHYNSE) disease control; details: Hordeum vulgare, 24 h, 1 Day Protectant, read-out: Disease Control RHYNSE 1 DP
Experimental: (§1) Technical grades of materials were dissolved in acetone, which were then mixed with nine volumes of water containing 110 ppm Triton X-100. The fungicide solutions were applied onto wheat seedlings using an automated booth sprayer to run-off. All sprayed plants were allowed to air dry prior to further handling. All fungicides were evaluated using the aforementioned method for their activity vs. all target diseases. Wheat leaf blotch and brown rust activity were also evaluated using track spray applications, in which case the fungicides were formulated as EC formulations, containing 0.1% Trycol 5941 in the spray solutions. Wheat plants (variety Yuma) were grown from seed in a greenhouse in 50% mineral soil/50% soil-less Metro mix until the first leaf was fully emerged, with 7-10 seedlings per pot. These plants were inoculated with an aqueous spore suspension of Septoria tritici either prior to or after fungicide treatments. After inoculation the plants were kept in 100% relative humidity (one day in a dark dew chamber followed by two to three days in a lighted dew chamber at 20° C.) to permit spores to germinate and infect the leaf. The plants were then transferred to a greenhouse set at 20° C. for disease to develop. When disease symptoms were fully expressed on the 1st leaves of untreated plants, infection levels were assessed on a scale of 0 to 100 percent disease severity. Percent disease control was calculated using the ratio of disease severity on treated plants relative to untreated plants. Barley seedlings (variety Harrington) were propagated in soil-less Metro mix, with each pot having 8 to 12 plants, and used in the test when first leaf was fully emerged. Test plants were inoculated by an aqueous spore suspension of Rhyncosporium secalis 24 hr after fungicide treatments. After inoculation the plants were kept in a dew room at 20° C. with 100% relative humidity for 48 hr. The plants were then transferred to a greenhouse set at 20° C. for disease to develop. Fungicide formulation, application and disease assessment on the sprayed leaves followed the procedures as described in the Example A.

[3] = test system: Blumeria graminis f. sp. hordei; Synonym: Erysiphe graminis f. sp. hordei; assay: Barley Powdery Mildew (ERYSGH) disease control; details: Blumeria graminis, 24 h, 1 Day Protectant, read-out: Disease Control ERYSGH 1 DP
Experimental: as §1, with “dusting with infected stock plants” for “an aqueous spore suspension of Rhyncosporium secalis”, “in” for “in a dew room at 20° C. with 100% relative humidity for 48 hr. The plants were then transferred to”

| Structure (SMILES) | pest or weed control at 100 ppm [1] | pest or weed control at 100 ppm [2] | pest or weed control at 100 ppm (Rhyncosporium secalis) | pest or weed control at 100 ppm [3] |
| --- | --- | --- | --- | --- |
| COc1ccnc(C(=O)N[C@H]2CCC[C@H](CC(F)F)[C@@H](Oc3ccccc3)[C@H](C)OC2=O)c1OC(C)=O [Compound F82] | 80 to 100% | 80 to 100% | 0 to 80% | 0 to 80% |
| CCCO[C@@H]1[C@@H](Cc2ccc(F)cc2)CCC[C@H](NC(=O)c2nccc(OC)c2OCOC(=O)COCC)C(=O)O[C@H]1C [Compound F167] | 80 to 100% | 80 to 100% | 80 to 100% | 80 to 100% |
| CCOCC(=O)OCOc1c(OC)ccnc1C(=O)N[C@H]1CCC[C@H](CCF)[C@@H](OCC(C)C)[C@H](C)OC1=O [Compound F181] | 80 to 100% | 80 to 100% | 0 to 80% | 0 to 80% |
